The text below walks through data of ChEMBL document CHEMBL1201862, “PubChem BioAssay data set” (2004).

Some test systems named below: 786-0; ACHN; CAKI-1; HCC 2998; HOP-92; IGROV-1; MDA-N; MOLT-4; RPMI-8226; RXF 393; SF-539; SK-MEL-28; SR; SW-620; TK-10; UACC-257; UACC-62; HOP-62; SF-268; SN12C.
What all share (assay): NCI anticancer screen, dose series, 48 h

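All cell lines were grown in 96-well plates and treated with compound for 48 hours. Abbreviation: GI50, concentration required for 50% inhibition of growth.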 Active and inactive are the calls of the source. Rule as the data show it: active = GI50 up to about 1.1 µM and inactive = higher. A value given as a limit tells only on which side of the number the result lay.

On to `O=C(CN1CCOCC1)CC(O)(C(F)(F)F)C(F)(F)F`, for which the GI50 was > 100 µM (inactive) in the test with 786-0; 92.5 µM (inactive) with ACHN; 78.3 µM (inactive) in the test with CAKI-1; 67.3 µM (inactive) in the test with HCC 2998; 29.6 µM (inactive) in the test on HOP-92; 71.8 µM (inactive) in the test with IGROV-1. Also, the GI50 with MDA-N is > 100 µM (inactive); in the test on MOLT-4, 37.2 µM (inactive); with RPMI-8226 it was 55.2 µM (inactive); with RXF 393 it was 20.1 µM (inactive); in the test on SF-539, > 100 µM (inactive); with SK-MEL-28 it was > 100 µM (inactive). For the same compound, the GI50 with SR is 79.4 µM (inactive); in the test with SW-620, 48.9 µM (inactive); with TK-10, > 100 µM (inactive); in the test with UACC-257 it was > 100 µM (inactive); in the test on UACC-62 it was 44.6 µM (inactive).

`N#Cc1c(N)nc2c(/N=N\c3ccccc3)c(N)nn2c1Nc1ccccc1`: the GI50 in the test with 786-0 was 18.6 µM (inactive); with ACHN, 20.4 µM (inactive); in the test on CAKI-1 it was 8.93 µM (inactive); with HCC 2998, 4.41 µM (inactive); with HOP-62, 20.3 µM (inactive); in the test with HOP-92 it was 14.6 µM (inactive). The GI50 was 10.9 µM (inactive) in the test on IGROV-1; 15.6 µM (inactive) with MDA-N; 3.24 µM (inactive) in the test on MOLT-4; 3.56 µM (inactive) in the test with RPMI-8226; 13.1 µM (inactive) in the test on RXF 393; 26.7 µM (inactive) in the test with SF-268. The GI50 in the test with SF-539 is 21.6 µM (inactive); in the test with SK-MEL-28, 5.51 µM (inactive); in the test on SN12C, 7.69 µM (inactive); with SR, 2.39 µM (inactive); with SW-620, 10.8 µM (inactive); in the test on TK-10, 22.3 µM (inactive). In addition, the GI50 in the test on UACC-257 is 18.7 µM (inactive).

With `O=c1c2cc(-c3ccccc3)cnc2sn1-c1ccc(Oc2ccccc2)cc1`, the GI50 with 786-0 was 17.3 µM (inactive); in the test with ACHN, 66.8 µM (inactive); in the test on CAKI-1, 61.9 µM (inactive); with HCC 2998, 73.5 µM (inactive); with HOP-62, 22.1 µM (inactive); in the test with HOP-92, 30.7 µM (inactive). For the same compound, the GI50 was 32.6 µM (inactive) in the test with IGROV-1; 28.4 µM (inactive) with MDA-N; 49.2 µM (inactive) in the test on MOLT-4; 53.1 µM (inactive) with RPMI-8226; 19.1 µM (inactive) with RXF 393; 51.4 µM (inactive) with SF-268. For the same compound, the GI50 is 50.4 µM (inactive) in the test on SF-539; > 100 µM (inactive) in the test on SK-MEL-28; 31.3 µM (inactive) in the test with SN12C; > 100 µM (inactive) with SR; 37.8 µM (inactive) with SW-620; 67 µM (inactive) with UACC-257. Further, the GI50 in the test on UACC-62 is 26.9 µM (inactive).

As for `ClCCN1CCO/C1=N/c1ccc2c(c1)CCCC2`, the GI50 with 786-0 was 16.2 µM (inactive); with ACHN, 7.05 µM (inactive); in the test with CAKI-1, 16 µM (inactive); with HCC 2998, 14.1 µM (inactive); in the test on HOP-62, 4.67 µM (inactive); in the test with HOP-92 it was 11.2 µM (inactive). In addition, the GI50 with IGROV-1 is 7.48 µM (inactive); in the test on MDA-N it was 10.8 µM (inactive); with MOLT-4, 12.2 µM (inactive); in the test with RPMI-8226 it was 4.76 µM (inactive); with RXF 393, 8.39 µM (inactive); in the test on SF-268 it was 14.7 µM (inactive). Moreover, the GI50 in the test on SF-539 is 4.81 µM (inactive); with SK-MEL-28 it was 14.1 µM (inactive); in the test on SN12C, 12.6 µM (inactive); in the test with SR it was 19.6 µM (inactive); with SW-620, 22.3 µM (inactive); in the test with UACC-257, 3.82 µM (inactive). For the same compound, the GI50 with UACC-62 is 11.3 µM (inactive).

As for `CC(C)(C)C1=C(Br)C(F)(C(C)(C)C)OP1(=O)c1ccccc1` (centres undefined), the GI50 in the test on 786-0 is 16.1 µM (inactive); with ACHN, 16.5 µM (inactive); with CAKI-1, 13 µM (inactive); in the test on HCC 2998, 13.8 µM (inactive); with HOP-62, 16.3 µM (inactive); with HOP-92, 18.7 µM (inactive). Further, the GI50 with IGROV-1 is 16 µM (inactive); in the test on MDA-N it was 20 µM (inactive); in the test with RPMI-8226 it was < 0.01 µM (active); in the test on RXF 393 it was 11.1 µM (inactive); with SF-268, 19.6 µM (inactive); in the test with SF-539, 19.1 µM (inactive). Also, the GI50 in the test with SK-MEL-28 is 19.2 µM (inactive); in the test with SN12C, 16 µM (inactive); in the test on SR it was 11.9 µM (inactive); with SW-620, 17.5 µM (inactive); with TK-10, 18.8 µM (inactive); in the test on UACC-257, 16.7 µM (inactive). Moreover, the GI50 in the test on UACC-62 is 15.3 µM (inactive).

Take `C1C2CC3CC1CC(Nc1nc(NC45CC6CC(CC(C6)C4)C5)nc(NC45CC6CC(CC(C6)C4)C5)n1)(C2)C3`: the GI50 in the test with 786-0 was > 20.8 µM (inactive); with ACHN it was 51.2 µM (inactive); with CAKI-1, > 100 µM (inactive); in the test with HCC 2998, 72.1 µM (inactive); in the test with HOP-62 it was > 36.5 µM (inactive); with HOP-92 it was > 100 µM (inactive). Further, the GI50 with MDA-N is 74.3 µM (inactive); in the test with MOLT-4, 57.3 µM (inactive); in the test with RPMI-8226, 24.5 µM (inactive); in the test on RXF 393, 39 µM (inactive); in the test with SF-268 it was > 100 µM (inactive); in the test with SF-539, > 100 µM (inactive). Also, the GI50 is > 31.1 µM (inactive) in the test on SK-MEL-28; > 100 µM (inactive) in the test on SN12C; 51.2 µM (inactive) with SR; 79.4 µM (inactive) with SW-620; > 60 µM (inactive) in the test with TK-10; > 28.8 µM (inactive) with UACC-257. Moreover, in the test with UACC-62, the GI50 is > 44.7 µM (inactive).

For `CS(=O)(=O)O[C@H]1[C@H](O)c2ccccc2[C@@H]1N=[N+]=[N-]`, the GI50 in the test on 786-0, with ACHN, with CAKI-1, with HCC 2998, in the test on HOP-62 and in the test on HOP-92 was > 100 µM (inactive) in each case. Moreover, the GI50 with IGROV-1, in the test with MDA-N, in the test on MOLT-4, in the test with RPMI-8226, in the test with RXF 393 and with SF-539 was > 100 µM (inactive) throughout. Besides, the GI50 in the test on SK-MEL-28, in the test on SN12C, in the test with SR, in the test with SW-620, in the test on UACC-257 and with UACC-62 was > 100 µM (inactive) in each case.

Take `Cc1cccc2c1CC1(C2)Cc2c(C)cccc2C1=O` (centres undefined): the GI50 was 23.8 µM (inactive) with 786-0; 24.9 µM (inactive) in the test with ACHN; 10.3 µM (inactive) with CAKI-1; 26.1 µM (inactive) in the test on HCC 2998; 23.6 µM (inactive) in the test with HOP-62; 16.6 µM (inactive) with HOP-92. The GI50 in the test on IGROV-1 was 30.4 µM (inactive); in the test with MDA-N it was 26.9 µM (inactive); in the test on MOLT-4, 9.91 µM (inactive); in the test on RPMI-8226, 14.8 µM (inactive); in the test with RXF 393 it was 15.6 µM (inactive); in the test with SF-268 it was 26.7 µM (inactive). For the same compound, the GI50 in the test with SF-539 is 25.9 µM (inactive); in the test on SK-MEL-28, 21.6 µM (inactive); in the test on SN12C, 23.2 µM (inactive); in the test with SR it was 11.2 µM (inactive); with SW-620, 29.9 µM (inactive); with TK-10, 23.6 µM (inactive). Moreover, the GI50 in the test on UACC-257 is 23 µM (inactive).
